Assay results reported in patent US20240327417A1, “HETEROCYCLIC COMPOUNDS” (BeiGene Switzerland GmbH, priority 2021, published 2024).

What was measured:
[1] = target: T1, Full length DGKζ (in-house protein M1-V929) (Homo sapiens, UniProt Q13574); assay: Biochemical DGK IC50 assay (ADP-Glo, lipid micelle substrate), DGKζ; conditions: 0.5 nM enzyme, 140 μM ATP, 80 μM DAG, 1 hour preincubation, 1 hour reaction, room temperature, read-out: IC50s for DGKζ
T1 construct: His (N); TEV cleavage site (N); made in house; host or cells: Sf9 insect cells (baculovirus, Bac-to-Bac)
T1 sequence (Q13574 1-929 isoform Q13574-4): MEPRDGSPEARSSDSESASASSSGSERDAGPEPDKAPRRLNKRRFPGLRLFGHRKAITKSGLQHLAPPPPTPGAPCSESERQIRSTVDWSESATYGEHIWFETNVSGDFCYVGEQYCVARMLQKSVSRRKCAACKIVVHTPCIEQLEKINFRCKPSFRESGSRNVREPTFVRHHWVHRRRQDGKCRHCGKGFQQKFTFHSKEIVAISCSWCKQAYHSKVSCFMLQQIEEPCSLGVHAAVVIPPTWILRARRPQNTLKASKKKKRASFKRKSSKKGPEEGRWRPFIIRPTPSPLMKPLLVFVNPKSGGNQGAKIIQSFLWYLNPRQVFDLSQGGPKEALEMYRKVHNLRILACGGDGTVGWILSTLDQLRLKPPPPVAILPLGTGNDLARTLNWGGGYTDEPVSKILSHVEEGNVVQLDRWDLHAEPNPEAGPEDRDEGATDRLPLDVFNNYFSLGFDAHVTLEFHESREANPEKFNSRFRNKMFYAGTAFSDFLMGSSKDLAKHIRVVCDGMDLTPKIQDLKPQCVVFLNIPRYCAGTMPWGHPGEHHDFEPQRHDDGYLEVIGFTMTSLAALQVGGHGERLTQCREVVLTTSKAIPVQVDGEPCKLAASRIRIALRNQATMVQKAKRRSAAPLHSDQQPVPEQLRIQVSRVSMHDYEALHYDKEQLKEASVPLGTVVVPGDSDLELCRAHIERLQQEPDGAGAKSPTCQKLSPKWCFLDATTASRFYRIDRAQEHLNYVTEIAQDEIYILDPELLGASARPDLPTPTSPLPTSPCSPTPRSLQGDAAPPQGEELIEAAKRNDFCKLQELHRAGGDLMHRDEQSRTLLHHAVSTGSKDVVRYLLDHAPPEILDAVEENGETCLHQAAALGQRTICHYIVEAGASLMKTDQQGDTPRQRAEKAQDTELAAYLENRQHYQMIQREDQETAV
Description: (§1) Enzymatic reactions of DGKζ, DGKα and DGKδ were performed using ADP-Glo assay with lipid micelle substrate. […] Full length DGKα (D21-10BG, SignalChem) and full length DGKδ (D23-10G, SignalChem) were purchased. Lipid micelle was prepared by dissolving DAG (Sigma, 317505-10MG) and PS (Sigma, P7769-100MG) with chloroform which was firtherly removed by rotary evaporation. The obtained residue was resuspended in buffer containing 25 mM HEPES pH 7.0, 0.5 mM EDTA and 160 mM Octyl β-D glucopyranoside by vigorous mixing and ultrasonic (IID, Scientz).
(§2) The inhibition activities testing for the compound disclosed herein were carried out at room temperature in assay buffer containing 50 mM HEPES, 10 mM MgCl2, 0.01% BSA, 0.1 mM Na3VO4, 0.005% Tween-20 and 0.01 mM CaCl2. Compounds in DMSO were dispensed into wells of a black 384 well plate (Corning 4514) using D300e digital dispenser (Tecan). The ranges of compounds final concentration were 1.55˜10000 nM or 23.3˜150000 nM. 3 μL 2× enzyme solution was added to wells. […] After 1 hour reaction, 5 μL ADP-Glo reagent (Promga V9101) was added and incubated for 40 minutes. 10 μL Kinase Detection reagent was added and incubated for 30 minutes. Luminescence was measured on a microplate reader (PHERAstar FSX, BMG labtech). The IC50s are calculated based on inhibition of enzyme activity in the presence of increasing concentrations of compounds.
Human His-TEV-DGK-zeta-pFastBac1 and human baculovirus samples was generated using the Bac-to-Bac baculovirus expression system (Invitrogen) according to the manufacturer's protocol. The DNA used for expression of DGK-zeta, have SEQ ID Nos: 1. Baculovirus amplification was achieved using infected SF9 cells at 1:2000 virus/cells ratios, and grown for 96 hours at 27° C. post-transfected.
The expression scaled up for each protein was carried out in the […] from CORNING. 4 L of 3×10^6 cells/mL Sf9 cells (Expression System, Invitrogen) grown in SF900™ II SFM insect medium (Expression System) was infected with virus stock at 1:200 virus/cells ratio, and grown for 48 hours at 27° C. post-transfection. The infected cell culture was harvested by centrifugation at 6000 rpm for 15 min 4° C. in a SORVALL LYNX6000 centrifuge. The cell pellets were stored at −80° C.
Full length human DGKζ produced as described above, was purified from Sf9 baculovirus-infected insect cell paste. The cells were lysed using sonication method, and the lysates were clarified by centrifugation.

[2] = target: T2, Full length DGKα (D21-10BG, SignalChem) (Homo sapiens, UniProt P23743); assay: Biochemical DGK IC50 assay (ADP-Glo, lipid micelle substrate), DGKα; conditions: 7.5 nM enzyme, 140 μM ATP, 80 μM DAG, 1 hour preincubation, 1 hour reaction, room temperature, read-out: IC50s for DGKα
T2 construct: Full length DGKα (D21-10BG, SignalChem); purchased SignalChem D21-10BG
T2 sequence (P23743 whole entry): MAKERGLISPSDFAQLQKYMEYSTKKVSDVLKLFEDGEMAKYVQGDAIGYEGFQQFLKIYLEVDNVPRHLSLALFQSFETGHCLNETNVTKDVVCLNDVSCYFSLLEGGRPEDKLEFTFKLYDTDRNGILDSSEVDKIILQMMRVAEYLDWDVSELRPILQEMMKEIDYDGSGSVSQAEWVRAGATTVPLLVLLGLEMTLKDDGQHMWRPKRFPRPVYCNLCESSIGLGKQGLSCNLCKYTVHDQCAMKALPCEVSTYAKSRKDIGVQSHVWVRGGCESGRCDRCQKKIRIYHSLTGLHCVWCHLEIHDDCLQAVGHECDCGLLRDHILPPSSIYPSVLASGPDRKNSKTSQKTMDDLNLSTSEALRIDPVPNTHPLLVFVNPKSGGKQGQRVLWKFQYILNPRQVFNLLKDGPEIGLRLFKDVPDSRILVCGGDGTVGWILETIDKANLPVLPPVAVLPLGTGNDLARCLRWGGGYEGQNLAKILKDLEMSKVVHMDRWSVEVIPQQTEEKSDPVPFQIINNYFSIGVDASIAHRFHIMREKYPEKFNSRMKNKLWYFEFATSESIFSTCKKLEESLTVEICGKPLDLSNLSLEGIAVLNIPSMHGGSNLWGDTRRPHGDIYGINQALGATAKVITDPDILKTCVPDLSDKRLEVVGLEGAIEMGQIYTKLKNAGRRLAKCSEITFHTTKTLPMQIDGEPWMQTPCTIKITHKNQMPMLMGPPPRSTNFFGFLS
Description: as §1, §2

Work on CC[C@@H]1CN(c2cc(=O)n(C)n3cc(CC#N)nc23)[C@@H](C)CN1C(C)c1ccc2nc(C)sc2c1 (stereo partly drawn) [Compound A55, 2-(8-((2S,5R)-5-ethyl-2-methyl-4-(1-(2-methylbenzo[d]thiazol-6-yl)ethyl)piperazin-1-yl)-5-methyl-6-oxo-5,6-dihydroimidazo[1,2-b]pyridazin-2-yl)acetonitrile] yielded an IC50 [1] of 0.108 µM and an IC50 [2] of 0.789 µM.

CC[C@H]1CN(C(C)c2ccc3c(c2)OCO3)[C@H](CC)CN1c1cc(=O)n(C)n2cc(CC#N)nc12 (stereo partly drawn) [Compound A71, 2-(8-((2S,5R)-4-(1-(benzo[d][1,3]dioxol-5-yl)ethyl)-2,5-diethylpiperazin-1-yl)-5-methyl-6-oxo-5,6-dihydroimidazo[1,2-b]pyridazin-2-yl)acetonitrile] was tested, and the IC50 [1] was 0.061 µM and the IC50 [2] was 0.066 µM.

Work on CC[C@H]1CN(C(C)c2ccc(OC(C)C)nc2)[C@H](CC)CN1c1cc(=O)n(C)n2cc(CC#N)nc12 (single isomer, unassigned) [Compound A45b] yielded an IC50 [1] of 1.06 µM and an IC50 [2] of 0.835 µM.

Compound CC[C@@H]1CN(c2cc(=O)n(C)n3cc(CC#N)nc23)[C@@H](C)CN1C(C)c1ccc(C2CC2)nc1 (single isomer, unassigned) [Compound A43b] has an IC50 [1] of over 10 µM and an IC50 [2] of 1.49 µM.

CC[C@H]1CN(C(C)c2ccc(C(C)(C)F)nc2)[C@H](CC)CN1c1cc(=O)n(C)n2cc(CC#N)nc12 (single isomer, unassigned) [Compound A46b] was tested, and the IC50 [1] was 0.877 µM and the IC50 [2] was 0.671 µM.

CC[C@H]1CN(C(C)c2ccc3nccnc3c2)[C@H](CC)CN1c1cc(=O)n(C)n2cc(COC)nc12 (single isomer, unassigned) [Compound A8a] gave an IC50 [1] of 0.025 µM and an IC50 [2] of 1.31 µM.

CC(c1ccc2c(c1)OC(C)(C)CO2)N1C[C@H](C)N(c2c(F)c(=O)n(C)n3cc(CC#N)nc23)C[C@H]1C (mixture of isomers) [Compound A26, 2-(8-((2S,5R)-4-(1-(3,3-dimethyl-2,3-dihydrobenzo[b][1,4]dioxin-6-yl)ethyl)-2,5-dimethylpiperazin-1-yl)-7-fluoro-5-methyl-6-oxo-5,6-dihydroimidazo[1,2-b]pyridazin-2-yl)acetonitrile] showed an IC50 [1] of 0.016 µM and an IC50 [2] of 3.09 µM.

In the case of CC(c1ccc2c(c1)OC(C)(C)CO2)N1C[C@H](C)N(c2c(F)c(=O)n(C)n3cc(CC#N)nc23)C[C@H]1C (single isomer, unassigned) [Compound A26a], the IC50 [1] is reported as 0.019 µM and the IC50 [2] is reported as 2.89 µM.

CC[C@H]1CN(C(C)c2ccc(C3CC3)nc2)[C@H](CC)CN1c1c(F)c(=O)n(C)n2cc(CC#N)nc12 (single isomer, unassigned) [Compound A73b] was tested, and the IC50 [1] was 0.302 µM and the IC50 [2] was 0.832 µM.

CC[C@@H]1CN(c2cc(=O)n(C)n3cc(CC#N)nc23)[C@@H](COC)CN1C(C)c1ccc2nc(C)sc2n1 (single isomer, unassigned) [Compound A108b] was tested, and the IC50 [1] was 0.182 µM and the IC50 [2] was 0.51 µM.

For CC[C@@H]1CN(c2c(C#N)c(=O)n(C)n3cc(CC#N)nc23)[C@@H](C)CN1C(C)c1ccc(C2CC2)nc1 (single isomer, unassigned) [Compound A74b], the IC50 [1] was 1.55 µM and the IC50 [2] was 1.43 µM.

Work on CC[C@H]1CN(C(C)c2ccc3nc(C)sc3n2)[C@H](CC)CN1c1c(C#N)c(=O)n(C)n2cc(CC#N)nc12 (single isomer, unassigned) [Compound A112a] yielded an IC50 [1] of 3.5 µM and an IC50 [2] of 0.752 µM.

[2H]C([2H])([2H])c1nc2ccc(C(C)N3C[C@H](CC)N(c4cc(=O)n(C)n5cc(CC#N)nc45)C[C@H]3CC)cc2s1 (single isomer, unassigned) [Compound A96a] gave an IC50 [1] of 0.033 µM and an IC50 [2] of 0.054 µM.

Compound CC[C@H]1CN(C(C)c2ccc3ncsc3n2)[C@H](CC)CN1c1cc(=O)n(C)n2cc(CC#N)nc12 (single isomer, unassigned) [Compound A57b] has an IC50 [1] of 0.357 µM and an IC50 [2] of 0.172 µM.

In the case of CC[C@@H]1CN(c2cc(=O)n(C)n3cc(C=NOC)nc23)[C@@H](C)CN1C(C)c1ccc2nccnc2c1 (single isomer, unassigned) [Compound A9d], the IC50 [1] is reported as over 10 µM and the IC50 [2] is reported as 0.211 µM.

Cc1cnc2ccc(C(C)N3C[C@H](C)N(c4cc(=O)n(C)n5cc(CC#N)nc45)C[C@H]3C)cc2n1 (single isomer, unassigned) [Compound A2b] was tested, and the IC50 [1] was 0.011 µM and the IC50 [2] was 11.6 µM.

For CC[C@@H]1CN(c2cc(=O)n(C)n3cc(CC#N)nc23)[C@@H](C)CN1C(C)c1ccc2cc(F)sc2n1 (stereo partly drawn) [Compound A106, 2-(8-((2S,5R)-5-ethyl-4-(1-(2-fluorothieno[2,3-b]pyridin-6-yl)ethyl)-2-methylpiperazin-1-yl)-5-methyl-6-oxo-5,6-dihydroimidazo[1,2-b]pyridazin-2-yl)acetonitrile], the IC50 [1] was 0.096 µM and the IC50 [2] was 0.026 µM.

CC[C@H]1CN(C(C)c2ccc3ncsc3n2)[C@H](CC)CN1c1c(C#N)c(=O)n(C)n2cc(CC#N)nc12 (stereo partly drawn) [Compound A114, 2-(cyanomethyl)-8-((2S,5R)-2,5-diethyl-4-(1-(thiazolo[5,4-b]pyridin-5-yl)ethyl)piperazin-1-yl)-5-methyl-6-oxo-5,6-dihydroimidazo[1,2-b]pyridazine-7-carbonitrile] showed an IC50 [1] of 0.127 µM and an IC50 [2] of 0.068 µM.

Work on CC[C@@H]1CN(c2cc(=O)n(C)n3cc(COC)nc23)[C@@H](C)CN1C(C)c1ccc(C(F)(F)F)cc1F (single isomer, unassigned) [Compound A16b] yielded an IC50 [1] of over 10 µM and an IC50 [2] of 8.46 µM.

Work on CC(c1ccc2nccnc2c1)N1C[C@H](C)N(c2cc(=O)n(C)n3cc(CC#N)nc23)C[C@H]1C (mixture of isomers) [Compound A1, 2-(8-((2S,5R)-2,5-dimethyl-4-(1-(quinoxalin-6-yl)ethyl)piperazin-1-yl)-5-methyl-6-oxo-5,6-dihydroimidazo[1,2-b]pyridazin-2-yl)acetonitrile] yielded an IC50 [1] of 0.078 µM and an IC50 [2] of 2 µM.

For CC[C@H]1CN(C(C)c2ccc3cc(F)sc3n2)[C@H](CC)CN1c1cc(=O)n(C)n2cc(CC#N)nc12 (single isomer, unassigned) [Compound A105b], the IC50 [1] was 0.048 µM and the IC50 [2] was 0.0033 µM.

CCC(c1ccc2nc(C)sc2n1)N1C[C@H](CC)N(c2cc(=O)n(C)n3cc(CC#N)nc23)C[C@H]1C (single isomer, unassigned) [Compound A98b] showed an IC50 [1] of 0.045 µM and an IC50 [2] of 0.039 µM.

CC[C@H]1CN(C(C)c2ccc3scnc3c2F)[C@H](CC)CN1c1cc(=O)n(C)n2cc(CC#N)nc12 (single isomer, unassigned) [Compound A66b] gave an IC50 [1] of 1.44 µM and an IC50 [2] of 1.64 µM.

For CC[C@@H]1CN(c2cc(=O)n(C)n3cc(C=NOC)nc23)[C@@H](C)CN1C(C)c1ccc2nccnc2c1 (single isomer, unassigned) [Compound A9a], the IC50 [1] was 3.15 µM and the IC50 [2] was 0.739 µM.

With CCc1nc2ccc(C(C)N3C[C@H](C)N(c4cc(=O)n(C)n5cc(CC#N)nc45)C[C@H]3CC)cc2s1 (single isomer, unassigned) [Compound A101b] the IC50 [1] was 1.11 µM and the IC50 [2] was 2.36 µM.

Work on CC[C@H]1CN(C(C)c2ccc(OC(C)C)nc2)[C@H](CC)CN1c1cc(=O)n(C)n2cc(CC#N)nc12 (single isomer, unassigned) [Compound A45a] yielded an IC50 [1] of 0.008 µM and an IC50 [2] of 0.941 µM.

CC[C@H]1CN(C(C)c2ccc3scnc3c2)[C@H](CC)CN1c1cc(=O)n(C)n2cc(CC#N)nc12 (single isomer, unassigned) [Compound A65a] gave an IC50 [1] of 0.007 µM and an IC50 [2] of 0.047 µM.

Compound CC[C@H]1CN(C(C)c2ccc3nc(C)sc3n2)[C@H](CC)CN1c1c(F)c(=O)n(C)n2cc(CC#N)nc12 (single isomer, unassigned) [Compound A82b] has an IC50 [1] of 1.05 µM and an IC50 [2] of 0.233 µM.

Compound CC[C@H]1CN(C(C)c2ccc3nc(C)sc3c2)[C@H](CC)CN1c1cc(=O)n(C)n2cc(CC#N)nc12 (single isomer, unassigned) [Compound A56a] has an IC50 [1] of 0.011 µM and an IC50 [2] of 0.087 µM.

Compound CC[C@H]1CN(C(C)c2ccc3nc(C4CC4)sc3n2)[C@H](CC)CN1c1cc(=O)n(C)n2cc(CC#N)nc12 (single isomer, unassigned) [Compound A109b] has an IC50 [1] of 0.028 µM and an IC50 [2] of 0.113 µM.
